Data from ChEMBL document CHEMBL4359853, “Antiproliferative activity of (R)-4'-methylklavuzon on hepatocellular carcinoma cells and EpCAM+/CD133+ cancer stem cells via SIRT1 and Exportin-1 (CRM1) inhibition” (Eur J Med Chem, 2019).
Activity calls are given as the source filed them. No cut-off for these calls is given here.

Columns and labels:
Huh-7 [1] = test: Cytotoxicity against human HuH7 cells assessed as reduction in cell viability measured after 48 to 72 hrs by MTT assay; format: functional, cell-based
Huh-7 [2] = test: Cytotoxicity against human HuH7 cells expressing positive EpCAM/CD133 assessed as reduction in cell viability measured after 48 hrs by MTT assay; format: functional, cell-based; settings: Huh-7, 48 h
[3] = target: Histone deacetylase 1 (Homo sapiens) (UniProt Q13547); test: Inhibition of human recombinant HDAC1 using FLUOR DE LYS SIRT1, deacetylase as substrate preincubated for 2 mins followed by substrate addition measured after 1 hr by fluorescence assay
Huh-7 [4] = test: Cytotoxicity against human HuH7 cells expressing positive EpCAM/CD133 assessed as reduction in cell viability measured after 72 hrs by MTT assay; format: functional, cell-based; settings: Huh-7, 72 h
Huh-7 [5] = test: Cell cycle arrest in human HuH7 positive EpCAM/CD133 cells assessed as increase in accumulation at G1 phase at 1 to 1.25 uM measured after 48 hrs by propidium iodide staining based flow cytometry analysis; format: functional
Huh-7 [6] = test: Cell cycle arrest in human HuH7 negative EpCAM/CD133 cells assessed as increase in accumulation at G2 phase at 10 uM measured after 48 hrs by propidium iodide staining based flow cytometry analysis; format: functional
Huh-7 [7] = test: Induction of apoptosis in human HuH7 negative EpCAM/CD133 cells assessed as increase in early apoptotic cells measured after 48 hrs by Annexin V-FITC/propidium iodide staining based flow cytometry analysis; format: functional, cell-based
Huh-7 [8] = test: Upregulation of p27 expression in human HuH7 cells at 1 to 3 uM measured after 24 to 72 hrs by SYBR-green based qPCR analysis; format: functional, cell-based
Huh-7 [9] = test: Induction of apoptosis in human HuH7 cells assessed as change in cell morphology at 0.1 to 10 uM measured after 48 hrs by 2D microscopic analysis; format: functional, cell-based
Huh-7 [10] = test: Induction of apoptosis in human HuH7 cells assessed as change in cell numbers at 0.1 to 10 uM measured after 48 hrs by 2D microscopic analysis; format: functional, cell-based
Huh-7 [11] = test: Induction of apoptosis in human HuH7 cells assessed as loss of spheroid morphology at 62.5 uM measured after 48 hrs by inverted light microscopy based matrigel assay; format: functional, cell-based
Huh-7 [12] = test: Induction of apoptosis in human HuH7 cells expressing positive EpCAM/CD133 assessed as loss of spheroid morphology at 62.5 uM measured after 48 hrs by inverted light microscopy based matrigel assay; format: functional, cell-based
[13] = target: T1, NAD-dependent protein deacetylase sirtuin-1 (Homo sapiens) (UniProt Q96EB6); test: Inhibition of human recombinant SIRT1 using FLUOR DE LYS SIRT1, deacetylase as substrate preincubated for 2 mins followed by substrate addition measured after 1 hr in presence of NAD+ by fluorescence assay
T1 sequence (whole entry): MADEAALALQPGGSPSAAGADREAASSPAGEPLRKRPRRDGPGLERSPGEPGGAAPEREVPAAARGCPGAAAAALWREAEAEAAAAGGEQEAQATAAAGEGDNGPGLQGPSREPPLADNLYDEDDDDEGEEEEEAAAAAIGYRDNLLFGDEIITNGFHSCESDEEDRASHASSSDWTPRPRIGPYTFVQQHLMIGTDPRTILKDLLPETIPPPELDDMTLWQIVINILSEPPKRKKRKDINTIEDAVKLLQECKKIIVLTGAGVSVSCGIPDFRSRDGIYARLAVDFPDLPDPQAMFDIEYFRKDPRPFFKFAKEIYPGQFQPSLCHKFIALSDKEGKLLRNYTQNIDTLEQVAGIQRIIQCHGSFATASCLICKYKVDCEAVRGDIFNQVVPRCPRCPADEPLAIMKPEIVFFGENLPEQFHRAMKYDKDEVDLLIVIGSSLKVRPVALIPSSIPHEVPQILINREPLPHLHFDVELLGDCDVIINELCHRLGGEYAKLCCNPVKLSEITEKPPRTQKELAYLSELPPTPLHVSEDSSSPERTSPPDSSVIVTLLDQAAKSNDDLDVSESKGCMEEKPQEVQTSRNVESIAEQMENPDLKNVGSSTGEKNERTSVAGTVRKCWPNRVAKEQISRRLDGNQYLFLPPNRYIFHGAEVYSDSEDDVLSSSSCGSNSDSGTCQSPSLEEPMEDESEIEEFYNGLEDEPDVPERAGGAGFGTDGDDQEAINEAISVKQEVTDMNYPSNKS

Homo sapiens [14] = species on record: Homo sapiens; test: Inhibition of Sirtuin/HDAC in human HUH7 cells assessed as decrease in enzymatic activity at 0.10 to 5 uM measured after 24 hrs relative to control; format: cell-based
Homo sapiens [15] = species on record: Homo sapiens; test: Inhibition of Sirtuin/HDAC in human HUH7 cells assessed as decrease in cell viability measured after 24 hrs; format: cell-based
Homo sapiens [16] = species on record: Homo sapiens; test: Inhibition of class 1/2 HDAC in human HuH7 nuclear extract at 0.1 to 81 uM after 24 hrs by fluorescence based assay
Huh-7 [17] = test: Induction of reactive oxygen species generation in human HuH7 cells at 1 uM measured after 24 hrs by DCFDA staining assay; format: functional, cell-based
Huh-7 [18] = test: Upregulation of SIRT1 in human HuH7 cells assessed as fold change at 1 uM measured after 24 hrs by ELISA relative to control; format: functional
Huh-7 [19] = test: Upregulation of SIRT1 in human HuH7 cells assessed as fold change at 3 uM measured after 24 hrs by ELISA relative to control; format: functional
[20] = target: Exportin-1 (Homo sapiens) (UniProt O14980); test: Inhibition of CRM1 in human HuH7 cells assessed as accumulation of RIOK2 in nucleus at 0.1 to 10 uM measured after 6 hrs by DAPI staining based confocal microscopy analysis; format: cell-based
[21] = target: Exportin-1 (Homo sapiens) (UniProt O14980); test: Inhibition of CRM1 in human HepG2 cells assessed as upregulation of p53 by measuring accumulation in nucleus at 0.1 to 10 uM measured after 6 to 24 hrs by DAPI staining based immunofluorescence microscopy analysis; format: cell-based
[22] = target: Histone-lysine N-methyltransferase EZH2 (Homo sapiens) (UniProt Q15910); test: Activation of EZH2 in human HuH7 cells assessed as upregulation of H3K27me3 expression measured after 4 hrs by Western blot analysis; format: cell-based
Huh-7 [23] = test: Cytotoxicity against human HuH7 cells negative EpCAM/CD133 assessed as reduction in cell viability measured after 48 to 72 hrs by MTT assay; format: functional, cell-based
Huh-7 [24] = test: Induction of apoptosis in human HuH7 negative EpCAM/CD133 cells assessed as change in cell morphology at 0.1 to 10 uM measured after 48 hrs by 2D microscopic analysis; format: functional, cell-based
Huh-7 [25] = test: Induction of apoptosis in human HuH7 negative EpCAM/CD133 cells assessed as change in cell number at 0.1 to 10 uM measured after 48 hrs by 2D microscopic analysis; format: functional, cell-based
Homo sapiens [26] = species on record: Homo sapiens; test: Inhibition of Sirtuin/HDAC in human HUH7 negative EpCAM/CD133 cells assessed as decrease in enzymatic activity at 0.10 to 5 uM measured after 24 hrs relative to control
Homo sapiens [27] = species on record: Homo sapiens; test: Inhibition of class 1/2 HDAC in human HuH7 negative EpCAM/CD133 cells nuclear extract at 0.1 to 81 uM after 24 hrs by fluorescence based assay

Exportin-1 (Homo sapiens), sequence (O14980 whole entry): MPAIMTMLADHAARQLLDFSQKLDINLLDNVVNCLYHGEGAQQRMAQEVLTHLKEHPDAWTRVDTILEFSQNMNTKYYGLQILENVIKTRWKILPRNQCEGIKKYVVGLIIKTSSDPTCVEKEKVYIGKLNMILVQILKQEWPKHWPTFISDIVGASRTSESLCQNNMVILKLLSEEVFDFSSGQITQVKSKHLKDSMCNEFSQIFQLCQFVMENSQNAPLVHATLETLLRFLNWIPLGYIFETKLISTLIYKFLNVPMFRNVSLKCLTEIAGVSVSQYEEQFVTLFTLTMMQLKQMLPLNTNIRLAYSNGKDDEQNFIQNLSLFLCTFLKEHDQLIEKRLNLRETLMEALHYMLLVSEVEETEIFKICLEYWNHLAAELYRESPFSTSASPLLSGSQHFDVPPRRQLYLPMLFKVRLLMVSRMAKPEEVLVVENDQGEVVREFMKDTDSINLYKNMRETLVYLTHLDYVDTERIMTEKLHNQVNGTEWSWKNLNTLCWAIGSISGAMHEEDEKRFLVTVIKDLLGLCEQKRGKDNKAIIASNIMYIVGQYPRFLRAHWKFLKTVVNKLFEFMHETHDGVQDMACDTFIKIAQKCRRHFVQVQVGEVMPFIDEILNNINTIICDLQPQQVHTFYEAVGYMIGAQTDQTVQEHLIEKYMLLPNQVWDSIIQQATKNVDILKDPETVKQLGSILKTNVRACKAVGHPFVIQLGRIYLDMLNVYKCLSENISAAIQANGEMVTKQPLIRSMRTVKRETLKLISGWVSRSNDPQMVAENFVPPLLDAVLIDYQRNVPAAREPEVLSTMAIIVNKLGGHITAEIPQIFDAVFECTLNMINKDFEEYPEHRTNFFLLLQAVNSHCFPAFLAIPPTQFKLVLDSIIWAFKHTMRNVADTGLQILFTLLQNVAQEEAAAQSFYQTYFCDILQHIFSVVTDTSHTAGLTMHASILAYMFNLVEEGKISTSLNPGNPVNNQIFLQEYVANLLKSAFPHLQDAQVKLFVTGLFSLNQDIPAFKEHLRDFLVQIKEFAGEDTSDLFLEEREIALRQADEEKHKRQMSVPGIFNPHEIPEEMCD
Histone deacetylase 1 (Homo sapiens), sequence (Q13547 whole entry): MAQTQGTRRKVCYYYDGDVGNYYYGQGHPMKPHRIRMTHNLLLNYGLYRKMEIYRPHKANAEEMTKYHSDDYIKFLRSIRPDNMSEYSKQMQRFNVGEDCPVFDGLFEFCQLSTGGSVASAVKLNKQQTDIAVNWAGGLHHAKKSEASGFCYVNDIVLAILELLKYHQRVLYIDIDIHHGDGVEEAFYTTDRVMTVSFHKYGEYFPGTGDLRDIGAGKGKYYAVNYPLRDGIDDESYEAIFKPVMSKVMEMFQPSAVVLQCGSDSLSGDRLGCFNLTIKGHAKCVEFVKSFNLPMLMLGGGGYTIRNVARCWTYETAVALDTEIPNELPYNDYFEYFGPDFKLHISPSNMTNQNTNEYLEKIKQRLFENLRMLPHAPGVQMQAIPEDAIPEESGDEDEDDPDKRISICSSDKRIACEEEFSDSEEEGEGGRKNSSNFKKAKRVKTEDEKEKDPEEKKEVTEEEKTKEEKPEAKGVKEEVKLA
Histone-lysine N-methyltransferase EZH2 (Homo sapiens), sequence (Q15910 whole entry, looked up): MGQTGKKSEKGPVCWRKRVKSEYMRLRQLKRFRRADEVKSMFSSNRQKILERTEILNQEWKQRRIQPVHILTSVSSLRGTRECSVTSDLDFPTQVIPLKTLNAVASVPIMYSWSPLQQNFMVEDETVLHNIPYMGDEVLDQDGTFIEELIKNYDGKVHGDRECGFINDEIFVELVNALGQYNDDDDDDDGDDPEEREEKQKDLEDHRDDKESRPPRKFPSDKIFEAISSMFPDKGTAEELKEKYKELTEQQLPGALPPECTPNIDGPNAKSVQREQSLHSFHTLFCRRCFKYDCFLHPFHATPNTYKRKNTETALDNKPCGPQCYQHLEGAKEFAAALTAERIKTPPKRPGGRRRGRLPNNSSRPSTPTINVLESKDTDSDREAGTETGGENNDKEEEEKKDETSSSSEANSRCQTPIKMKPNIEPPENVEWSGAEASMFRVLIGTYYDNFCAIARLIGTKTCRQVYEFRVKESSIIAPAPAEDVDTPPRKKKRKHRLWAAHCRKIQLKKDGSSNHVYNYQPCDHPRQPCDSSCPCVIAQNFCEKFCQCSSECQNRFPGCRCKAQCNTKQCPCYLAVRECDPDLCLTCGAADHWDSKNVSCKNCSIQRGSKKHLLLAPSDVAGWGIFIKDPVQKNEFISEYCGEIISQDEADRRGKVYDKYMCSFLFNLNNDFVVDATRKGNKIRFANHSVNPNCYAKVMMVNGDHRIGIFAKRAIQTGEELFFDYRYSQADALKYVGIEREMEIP

Q: With `Cc1ccc([C@H]2CC=CC(=O)O2)c2ccccc12` as the compound, how does the IC50 (Huh-7 [1]) read?
A: Its IC50 is 1250 nM.

Q: What about the IC50 (Huh-7 [2]) of the same compound?
A: The IC50 was 2500 nM.

Q: What about the inhibition [3] of the same compound?
A: The inhibition was “inactive”.

Q: What about the IC50 (Huh-7 [4]) of the same compound?
A: The IC50 was 1250 nM.

Q: What about the Activity (Huh-7 [5]) of the same compound?
A: Its Activity is “Active”.

Q: What about the Activity (Huh-7 [6]) of the same compound?
A: The Activity was “Active”.

Q: And the Activity (Huh-7 [7])?
A: The Activity was “Dose-dependent effect”.

Q: And the Activity (Huh-7 [8])?
A: Its Activity is “Active”.

Q: And the Activity (Huh-7 [9])?
A: Its Activity is “Active”.

Q: What about the Activity (Huh-7 [10]) of the same compound?
A: The Activity was “Active”.

Q: What about the Activity (Huh-7 [11]) of the same compound?
A: The Activity was “Active”.

Q: And the Activity (Huh-7 [12])?
A: The Activity was “Active”.

Q: And the inhibition [13]?
A: The inhibition was “Dose-dependent effect”.

Q: And the inhibition (Homo sapiens [14])?
A: Its inhibition is 35 to 40%.

Q: And the inhibition (Homo sapiens [15])?
A: Its inhibition is “Active”.

Q: What about the inhibition (Homo sapiens [16]) of the same compound?
A: The inhibition was “inactive”.

Q: What about the Activity (Huh-7 [17]) of the same compound?
A: The Activity was “Active”.

Q: What about the “fold change (FC)” value (Huh-7 [18]) of the same compound?
A: Its value is 3.3.

Q: What about the “fold change (FC)” value (Huh-7 [19]) of the same compound?
A: The value was 3.9.

Q: What about the inhibition [20] of the same compound?
A: The inhibition was “Active”.

Q: What about the inhibition [21] of the same compound?
A: The inhibition was “Active”.

Q: And the Activity [22]?
A: Its Activity is “Active”.

Q: And the IC50 (Huh-7 [23])?
A: The IC50 was 1250 nM.

Q: And the Activity (Huh-7 [24])?
A: Its Activity is “Active”.

Q: What about the Activity (Huh-7 [25]) of the same compound?
A: Its Activity is “Active”.

Q: What about the Activity (Homo sapiens [26]) of the same compound?
A: The Activity was “Active”.

Q: And the Activity (Homo sapiens [27])?
A: Its Activity is “inactive”.
